PMC7614683, “A small molecule PI3Kα activator for cardioprotection and neuroregeneration” (Nature, 2023)

Target: T1, human p110β/p85α (PI3Kβ) (Homo sapiens, UniProt P42338)
T1 construct: Full-length human p110β/p85α and p110δ/p85α were cloned and expressed in a similar manner; Strep-tag followed by TEV protease site (N, cleaved yes); host or cells: Spodoptera frugiperda Sf9, baculovirus
Test: ADP-Glo in vitro lipid kinase assay, PI3Kβ
Format: biochemical
Experimental: Full-length human p110β/p85α and p110δ/p85α were cloned and expressed in a similar manner. Briefly, 5 litres of Spodoptera frugiperda (Sf9) cell culture at a density of 1.0 x 10^6 cells/ml were co-infected with both a p85α-encoding virus and a virus encoding p110β/δ with an N-terminal Strep-tag followed by a tobacco etch virus (TEV) protease site (plasmid OP832 for p110β, plasmid OP833 for p110δ and plasmid of OP809 for p85α). After a 48 h infection at 27°C, cells were harvested and washed with PBS. Cell pellets were then resuspended in Lysis Buffer (20 mM Tris pH 8.0, 150 mM NaCl, 5% glycerol, 2 mM β-mercaptoethanol, 1 EDTA-free protease inhibitor tablet (Roche) per 50 ml of buffer) and sonicated ar 4°C for 7 min in 15 sec intervals followed by a 15 sec wait. […]
For re-screening of HTS hits and routine compound profiling, the reaction mixture contained 2 μl PI3K enzyme, 2 μl compound and/or pY and 2 μl of liposome substrate mixed with ATP. […] Luminescence was read using a Sense (Hidex) plate reader. […]
For characterisation of the effects of 1938 on in vitro PI3K enzymology, all reactions were performed at room temperature with 384 white-polystyrene plates (Corning #3574). […] Data was expressed as velocity (nmol of ADP generated/nmol of enzyme/sec). […] Luminescence was read using a PHERAstar® plate reader with software version 5.41, and analyses were performed using GraphPad Prism 8/9.

T1 sequence (P42338 whole entry): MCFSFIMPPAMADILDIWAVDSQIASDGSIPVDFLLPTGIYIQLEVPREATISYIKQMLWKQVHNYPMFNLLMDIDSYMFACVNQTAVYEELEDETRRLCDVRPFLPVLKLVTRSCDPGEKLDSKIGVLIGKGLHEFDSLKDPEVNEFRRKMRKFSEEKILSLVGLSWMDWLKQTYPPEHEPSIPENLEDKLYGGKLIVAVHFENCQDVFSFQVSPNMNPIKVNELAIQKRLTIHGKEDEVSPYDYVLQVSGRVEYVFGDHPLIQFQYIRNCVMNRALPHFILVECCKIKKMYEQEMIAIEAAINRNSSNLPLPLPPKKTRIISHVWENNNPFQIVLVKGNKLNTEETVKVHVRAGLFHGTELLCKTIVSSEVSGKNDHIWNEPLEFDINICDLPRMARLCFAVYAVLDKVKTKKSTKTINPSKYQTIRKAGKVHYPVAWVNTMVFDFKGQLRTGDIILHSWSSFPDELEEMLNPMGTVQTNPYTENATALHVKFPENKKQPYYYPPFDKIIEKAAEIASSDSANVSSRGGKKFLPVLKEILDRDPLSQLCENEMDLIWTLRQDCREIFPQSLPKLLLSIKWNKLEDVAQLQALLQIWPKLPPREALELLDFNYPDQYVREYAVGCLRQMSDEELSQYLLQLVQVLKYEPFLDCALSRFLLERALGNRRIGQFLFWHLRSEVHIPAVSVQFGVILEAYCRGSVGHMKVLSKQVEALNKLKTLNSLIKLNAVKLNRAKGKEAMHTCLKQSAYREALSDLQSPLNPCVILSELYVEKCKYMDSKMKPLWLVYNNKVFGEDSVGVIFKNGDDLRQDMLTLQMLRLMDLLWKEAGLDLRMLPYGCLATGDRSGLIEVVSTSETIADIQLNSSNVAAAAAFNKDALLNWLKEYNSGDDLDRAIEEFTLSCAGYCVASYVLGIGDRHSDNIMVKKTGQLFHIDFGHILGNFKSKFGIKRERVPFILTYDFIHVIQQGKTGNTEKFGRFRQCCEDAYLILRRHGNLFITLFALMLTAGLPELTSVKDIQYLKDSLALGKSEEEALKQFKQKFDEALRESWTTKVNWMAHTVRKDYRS
T1 sequence (P27986 whole entry partner): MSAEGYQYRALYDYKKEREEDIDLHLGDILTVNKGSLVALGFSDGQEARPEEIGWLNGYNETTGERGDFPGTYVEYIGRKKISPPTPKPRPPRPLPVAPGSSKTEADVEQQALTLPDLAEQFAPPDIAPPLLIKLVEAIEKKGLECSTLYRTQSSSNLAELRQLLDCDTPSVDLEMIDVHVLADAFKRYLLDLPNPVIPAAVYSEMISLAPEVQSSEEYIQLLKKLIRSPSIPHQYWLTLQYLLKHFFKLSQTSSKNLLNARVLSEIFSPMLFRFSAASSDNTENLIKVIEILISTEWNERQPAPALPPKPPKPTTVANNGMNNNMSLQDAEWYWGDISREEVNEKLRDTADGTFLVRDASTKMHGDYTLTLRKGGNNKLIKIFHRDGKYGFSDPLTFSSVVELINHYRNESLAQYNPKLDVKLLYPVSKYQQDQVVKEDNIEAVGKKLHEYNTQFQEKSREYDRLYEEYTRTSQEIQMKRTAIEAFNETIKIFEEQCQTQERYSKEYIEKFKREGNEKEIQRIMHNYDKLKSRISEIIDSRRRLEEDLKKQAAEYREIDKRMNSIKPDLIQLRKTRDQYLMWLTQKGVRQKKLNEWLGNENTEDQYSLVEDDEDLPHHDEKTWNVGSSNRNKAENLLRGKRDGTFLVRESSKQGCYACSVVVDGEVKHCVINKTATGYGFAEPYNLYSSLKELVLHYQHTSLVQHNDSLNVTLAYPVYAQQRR

CCN1CCN(c2ccc(Nc3cc(Nc4cccc5c4N(C(C)=O)CC5)ccn3)cc2)CC1 [Compound 1938]
activation of PI3Kβ: but not PI3Kβ or PI3Kδ
